Measurements reported in publication PMC7457602 (bioRxiv, 2020).

Biological target: SARS-CoV-2 3CLpro (Severe acute respiratory syndrome coronavirus 2, UniProt P0DTD1)

## O=c1c2ccccc2[se]n1-c1ccccc1 [Ebselen]
  activity in the transfection-based assay (rescue of 3CLpro induced cytotoxicity): did not observe activity
